The test system of test [1] is HMGB1. Kind of test: HMGB1 quantitation from keratinocytes (ELISA of supernatant, normalized to total protein). As to conditions: for HMGB1 levels relative to the control: result in words. Type of test: cell-based. As to the method:
Make a 210 mL suspension of keratinocytes at 40,000 cells/mL using suitable media to make a cell suspension. Place 2 mL of the cell suspension into the appropriate number of wells of one or more 12-well plates as needed, using the same velocity and insertion angle for each well as cells are pipetted. Incubate the 12-well plates overnight at 37° C. If the cell plating quality is poor (e.g., cells are not attached to plate or seeding density is uneven), discard and start over. Prepare a dosing media by diluting the test agent to the desired concentration (e.g., from 0.0001% to 10%) in a suitable media (e.g., the same media used to make the cell suspension). […] It is not uncommon for skin care actives to be included in skin care compositions at these levels. Optionally, include sufficient solublizer to provide 0.1% solublizer in the test sample. Add 2 mL of dosing media into each well of a 12-well plate and incubate at 4° C. overnight or until test agent is to be added to the test sample. Place prepared dosing media in the 37° C. incubator for at least 30 minutes, or until pH has equalized. When dosing media is warmed and at proper pH, dose the cells. Incubate the dosed cells at 37° C. for 6 hours. Keratinocytes (or other cells) are plated out in 12 well plates as described above with a seeding density of about […] and incubated overnight at 37° C. with 5% CO2. The keratinocytes are dosed with a dosing medium containing the test agent and the plates returned to the incubator for another 20 hours. The supernatant for each is collected and the HMGB1 level analyzed using ELISA (USCN Life Sciences) in accordance with manufacturer's instructions. The cells are lysed with Glo Lysis Buffer (Promega) and the protein levels determined using BCA kits (Pierce) per manufacturer's instructions. The values of HMGB1 determined by ELISA and normalized to total protein levels from the cells.

Test [2] has as its system primary human melanocytes. The test can be described thus: Melanocyte dendricity and size measurements (Incucyte ZOOM live cell imaging). Type of test: cell-based. The settings on record: melanocytes contacted with HMGB1, over the span of three days. From the text:
The ability of a test agent to inhibit dendricity and cell body growth in melanocytes may be determined by contacting a sample of melanocytes with the test agent, measuring the change in dendricity and/or cell body growth and comparing the measured indicator to a control to determine if the test agent is identified as a skin tone agent. In some instances, it is important for the test sample to include a source of HMGB1. For example, an amount of HMGB1 (e.g., recombinant HIS-tagged HMGB1 available from Sigma) may be included in the test sample (e.g., at a final level of 0.1 μg/mL), or the test sample may include another type of cell, which can be stimulated to produce HMGB1. A control may be obtained by measuring the dendricity and/or cell body size of the melanocytes prior to contact with the test agent, measuring the dendricity and/or cell body size of the melanocytes in a control sample and/or from the dendricity and/or cell body size of melanocytes published in scientific literature, if available.
Primary human melanocytes (ATCC) are cultured for 2 passages in T150 flasks. For dendricity experiments, melanocytes are plated into 96 well plates (clear) at a density of about 5000 cells/well. The plates are placed into an Incucyte ZOOM® live cell imaging system (Essen Bioscience, Ann Arbor, Mich.) which resides inside a 37° C., 5% CO2 incubator. […]

Turning to hydroxycinnamic acid [HCA], the “HMGB1 levels relative to the control” value in test [1] was “significantly reduced”. Also, the “HMGB1 (pg)/protein (ug)” value in test [1] (test agent 0.001%) is 29 pg/ug protein; in test [1] (test agent 0.005%), 6 pg/ug protein; in test [1] (test agent 0.02%), 2 pg/ug protein.
Consider methyl hydroxycinnamic acid [ME-HCA], for which the “HMGB1 levels relative to the control” value in test [1] is “significantly reduced”. The “HMGB1 (pg)/protein (ug)” value in test [1] (test agent 0.001%) was 33 pg/ug protein; in test [1] (test agent 0.005%), 28 pg/ug protein; in test [1] (test agent 0.02%), 4 pg/ug protein.

B1: HMGB1: recombinant HIS-tagged HMGB1 available from Sigma; high-mobility group protein B1, SEQ ID No. 1 (protein, listed as Homo sapiens)
chain: MGKGDPKKPRGKMSSYAFFVQTCREEHKKKHPDASVNFSEFSKKCSERWKTMSAKEKGKFEDMAKADKARYEREMKTYIPPKGETKKKFKDPNAPKRPPSAFFLFCSEYRPKIKGEHPGLSIGDVAKKLGEMWNNTAADDKQPYEKKAAKLKEKYEKDIAAYRAKGKPDAAKKGVVKAEKSKKKKEEEEDEEDEEDEEEEEDEEDEDEEEDDDDE
modifications: His tag
As to B1, in test [2], the “cell body size of melanocytes relative to the control” value is “significantly larger” and the “dendricity (dendrite length) of melanocytes relative to the control” value is recorded as “significantly longer”.

These data come from patent publication US9964534B2, “Method of making a skin care composition” (The Procter & Gamble Company, priority 2014, dated 2018).
